Reference: patent publication US20230024461A1, “METHODS FOR DUAL DNA/PROTEIN TAGGING OF OPEN CHROMATIN” (Beth Israel Deaconess Medical Center, Inc., priority 2019, published 2023)

T1: PML-RARA oncogenic fusion protein (Homo sapiens, UniProt P10276+P29590)
T1 construct: PML portion (fusion partner, human Protein PML, P29590); endogenous in cells; host or cells: NB4 acute promyelocytic leukemia cells
T1 sequence (P29590+P10276 with tags, fused parts or gaps): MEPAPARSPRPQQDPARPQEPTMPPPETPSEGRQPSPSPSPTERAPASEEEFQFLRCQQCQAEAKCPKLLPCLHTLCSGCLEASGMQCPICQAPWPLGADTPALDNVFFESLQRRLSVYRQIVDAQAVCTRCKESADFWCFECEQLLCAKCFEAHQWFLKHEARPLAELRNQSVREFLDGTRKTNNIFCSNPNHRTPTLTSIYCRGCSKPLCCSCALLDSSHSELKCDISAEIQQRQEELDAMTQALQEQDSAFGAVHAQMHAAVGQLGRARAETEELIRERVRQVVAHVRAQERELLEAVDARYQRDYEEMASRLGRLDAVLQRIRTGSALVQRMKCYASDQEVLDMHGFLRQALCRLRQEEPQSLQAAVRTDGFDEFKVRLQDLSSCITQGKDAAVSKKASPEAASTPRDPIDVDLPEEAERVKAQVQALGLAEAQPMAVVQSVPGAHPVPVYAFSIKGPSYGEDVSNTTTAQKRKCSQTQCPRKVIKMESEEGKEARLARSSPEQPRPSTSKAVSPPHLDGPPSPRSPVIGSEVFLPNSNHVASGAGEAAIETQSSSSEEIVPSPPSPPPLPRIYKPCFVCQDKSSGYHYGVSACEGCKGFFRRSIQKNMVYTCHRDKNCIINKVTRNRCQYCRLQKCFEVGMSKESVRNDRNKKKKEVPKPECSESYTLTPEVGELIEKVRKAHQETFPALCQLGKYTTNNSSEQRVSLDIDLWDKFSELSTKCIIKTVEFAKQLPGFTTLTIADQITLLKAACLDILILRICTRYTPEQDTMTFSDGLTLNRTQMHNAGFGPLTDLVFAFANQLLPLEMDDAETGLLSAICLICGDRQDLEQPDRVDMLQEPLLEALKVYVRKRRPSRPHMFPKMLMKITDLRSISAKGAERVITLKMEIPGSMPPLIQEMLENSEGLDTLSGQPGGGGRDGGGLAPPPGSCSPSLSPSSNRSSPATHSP

B1: APEX2-F: FLAG-tagged APEX2 peroxidase alone, negative control probe; amino acid SEQ ID NO: 21 (protein)
chain: MGKSYPTVSADYQDAVEKAKKKLRGFIAEKRCAPLMLRLAFHSAGTFDKGTKTGGPFGTIKHPAELAHSANNGLDIAVRLLEPLKAEFPILSYADFYQLAGVVAVEVTGGPKVPFHPGREDKPEPPPEGRLPDPTKGSDHLRDVFGKAMGLTDQDIVALSGGHTIGAAHKERSGFEGPWTSNPLIFDNSYFTELLSGEKEGLLQLPSDKALLSDPVFRPLVDKYAADEDAFFADYAEAHQKLSELGFADADYKDDDDK
modifications: FLAG tag

Experiments:
[1] = target: T1, PML-RARA oncogenic fusion protein; assay: Western blotting analysis of the PML epitope; assay type: cell-based; details: NB4 cells, 48 hours ATRA versus DMSO
Method: Western blotting analysis. Whole cell or nuclear lysates were generated by resuspending cells or nuclei in RIPA (Boston BioProducts) supplemented with 1× cOmplete EDTA-free protease inhibitor cocktail (Roche). Lysates were incubated on ice for 30 minutes, sonicated via a Sonic Dismembrator 100 (Fisher Scientific) at setting 3 with 3-4 pulses of 15 seconds on/off on ice, and treated with benzonase for an additional 30 minutes on ice. Lysates were clarified by centrifugation (15,000×g, 20 minutes, 4° C.) and their concentrations quantified via the detergent-compatible Bradford assay (Thermo Fisher Scientific). All Western blots were run on NuPAGE 4-12% Bis-Tris protein gels (Thermo Fisher Scientific) and transferred to 0.2 μm nitrocellulose membranes (GE Healthcare). Membranes were blocked with 3% milk in PBS-T and incubated overnight with primary antibody and subsequently with secondary antibody after brief washing with PBS-T. Chemiluminescence was determined by applying ECL Western Blotting detection reagent (GE Healthcare) to membranes and imaging on an Amersham Imager 600 (GE Healthcare). Membranes were stripped with Restore PLUS Stripping Buffer (Thermo Fisher Scientific). Primary antibodies used were anti-FLAG M2 (mouse, Sigma-Aldrich, F1804, 1:2000), anti-PCNA (mouse, PC10, Santa Cruz Biotechnology sc-56, 1:1000), and anti-PML (rabbit, Bethyl A301-[MUT], 1:1000). […]

NB4 cells [2] = assay: Cell proliferation assay (CellTiter-Glo); assay type: cell-based, human; details: 1 μM ATRA, 48 hours, versus DMSO
Method: Cell proliferation assay. NB4 cells were seeded at a density of 5e5 cells/mL subjected to either DMSO or 1 μM ATRA. After 48 hours, 50 μL cell suspension was added to 50 μL CellTiter-Glo reagent, incubated for 10 minutes at room temperature, and assayed for luminescence with a SpectraMax iD3 plate reader.

NB4 cells [3] = assay: Granulocytic differentiation analysis (flow cytometry); assay type: cell-based, human; details: 1 μM ATRA, 48 hours, versus DMSO
Method: NB4 cells treated either with DMSO or 1 μM ATRA were washed with 2% fetal bovine serum prior to staining. Anti-human CD11b-PE-Cy7 antibody conjugate (Clone: ICRF44, Biolegend Catalog #301321; 1:100) and anti-human CD11c-APC antibody conjugate (Clone: B-1y6, BD Pharmingen #559877; 1:100) were incubated with samples for 20 minutes and then washed to remove excess antibody. Stained samples were analyzed on a Beckman Coulter CytoFLEX LX flow cytometer with the CytoExpert v2.3.1.22 software. Data were analyzed with FlowJo v10.0.7.

NB4 cells [4] = assay: iDAPT-MS of NB4 nuclei, ATRA versus DMSO; assay type: cell-based, human; details: TP3 probe
Method: DNA and protein tagging by iDAPT. All iDAPT proteomic labeling assays were performed as described below unless indicated otherwise. 2.5 μmol MEDS-A/B, 2 μmol enzyme, and 1 μmol hemin chloride per channel were incubated at room temperature for 1 hour. 1e7 cells per sample were washed (500×g, 5 minutes, 4° C.), lysed and triturated in 100 μL LB1 (10 mM Tris-HCl pH 7.5, 10 mM NaCl, 3 mM MgCl2, 1% BSA, 0.01% digitonin, 0.1% Tween-20, 0.1% NP-40, and 1× cOmplete EDTA-free protease inhibitor cocktail [Roche]) for 3 minutes, and subsequently supplemented with an additional 1 mL of LB2 (10 mM Tris-HCl pH 7.5, 10 mM NaCl, 3 mM MgCl2, 1% BSA, 0.1% Tween-20, and 1× protease inhibitor). Nuclei were pelleted (500×g, 10 minutes, 4° C.), resuspended with tagmentation reaction mixture (20% dimethylformamide, 10 mM MgCl2, 20 mM Tris-HCl pH 7.5, 33% 1×PBS, 1% BSA, 0.01% digitonin, 0.1% Tween-20, 500 μM biotin-phenol, 1× protease inhibitor, and 2 pmol enzyme equivalent of enzyme:DNA:heme complex in a total volume of 500 μL), and incubated at 37° C. for 30 minutes with agitation on a thermomixer (1,000 rpm). […] Lysates were clarified by centrifugation (15,000×g, 20 minutes, 4° C.), quantified via the detergent-compatible Bradford assay (Thermo Fisher Scientific), and subjected to either Western blotting or quantitative mass spectrometry analyses as described below. […]

[5] = Peroxidase activity assay (Amplex UltraRed/resorufin fluorescence); assay type: biochemical; details: 1 mM hydrogen peroxide, one minute
Method: Peroxidase activity assay. 5 pmol enzyme was incubated with 2.5 pmol hemin chloride (dissolved in DMSO, Cayman Chemical) for 1 hour at room temperature. This molar ratio was selected given reports of APEX2 maximal heme occupancy between 40-57%. Heme:protein complexes were then subjected to 50 μM Amplex UltraRed (Thermo Fisher Scientific) and 1 mM hydrogen peroxide for 1 minute at room temperature in a total volume of 100 μL with 1×PBS. Reactions were then quenched with 100 μL 2× quenching solution (10 mM Trolox, 20 mM sodium ascorbate, and 20 mM NaN3 in 1×PBS), and fluorescence intensities were measured on a SpectraMax iD3 plate reader, with excitation at 530 nm and emission at 590 nm.
Peroxidase activity assay. 5 pmol enzyme was incubated with 2.5 pmol hemin chloride (Cayman Chemical, dissolved in DMSO) for 1 hour at room temperature. This molar ratio was selected given reports of APEX2 maximal heme occupancy between 40-57%. […] Reactions were then quenched with 100 μL 2× quenching solution (10 mM Trolox, 20 mM sodium ascorbate, and 20 mM NaN3 in 1×PBS), and fluorescence intensities were measured on a SpectraMax iD3 plate reader with the SoftMax Pro v7.0.3 software, with excitation at 530 nm and emission at 590 nm.

HEK293T nuclei = assay: iDAPT protein labeling, western blot of labeled nuclear lysates; assay type: biochemical, human; details: extracted HEK293T nuclei
Method: DNA and protein tagging by iDAPT. All iDAPT proteomic labeling assays were performed as described below unless indicated otherwise. 2.5 μmol MEDS-A/B, 2 μmol enzyme, and 1 μmol hemin chloride per channel were incubated at room temperature for 1 hour. 1e7 cells per sample were washed (500×g, 5 minutes, 4° C.), lysed and triturated in 100 μL LB1 (10 mM Tris-HCl pH 7.5, 10 mM NaCl, 3 mM MgCl2, 1% BSA, 0.01% digitonin, 0.1% Tween-20, 0.1% NP-40, and 1× cOmplete EDTA-free protease inhibitor cocktail [Roche]) for 3 minutes, and subsequently supplemented with an additional 1 mL of LB2 (10 mM Tris-HCl pH 7.5, 10 mM NaCl, 3 mM MgCl2, 1% BSA, 0.1% Tween-20, and 1× protease inhibitor). Nuclei were pelleted (500×g, 10 minutes, 4° C.), resuspended with tagmentation reaction mixture (20% dimethylformamide, 10 mM MgCl2, 20 mM Tris-HCl pH 7.5, 33% 1×PBS, 1% BSA, 0.01% digitonin, 0.1% Tween-20, 500 μM biotin-phenol, 1× protease inhibitor, and 2 pmol enzyme equivalent of enzyme:DNA:heme complex in a total volume of 500 μL), and incubated at 37° C. for 30 minutes with agitation on a thermomixer (1,000 rpm). 5 μL of tagmentation mix was saved for quality assessment as described above for ATAC-seq/iDAPT-seq sample preparation. The remaining nuclear suspension was then washed 2× with 1×PBS supplemented with 500 μM biotin-phenol, 1% BSA, 0.1% Tween-20, and 1× protease inhibitor (3000×g, 5 minutes, 4° C.) and labeled with 1 mM hydrogen peroxide and 500 μM biotin-phenol for 1 minute in 1×PBS with 1× protease inhibitor in a volume of 500 μL. Peroxidation reactions were quenched with 500 μL 2× quenching buffer (10 mM Trolox, 20 mM sodium ascorbate, 20 mM NaN3, and 1× protease inhibitor in 1×PBS). Labeled nuclei were then pelleted, washed with 1× quenching buffer, resuspended in 500 μL RIPA containing protease inhibitors, and frozen at −80° C. Lysates were thawed on ice, sonicated via a Sonic Dismembrator 100 (Fisher Scientific, setting 3, 15 seconds, 4 pulses), and incubated on ice for 30 minutes after the addition of 1 μL benzonase (EMD Millipore). Lysates were clarified by centrifugation (15,000×g, 20 minutes, 4° C.), quantified via the detergent-compatible Bradford assay (Thermo Fisher Scientific), and subjected to either Western blotting or quantitative mass spectrometry analyses as described below. For NB4 cell analysis, an additional endogenous peroxidase blocking step was added after nuclear extraction and before tagmentation: nuclei were resuspended in 500 μL 1×PBS containing 1% BSA, 0.03% hydrogen peroxide, and 0.1% NaN3 and incubated on ice for 30 minutes. Nuclei were pelleted and washed 4× with 1×PBS/1% BSA (3000×g, 5 minutes, 4° C.). Residual hydrogen peroxide was monitored by colorimetric assessment of supernatant via Quantofix peroxides test stick (Sigma).
Western blotting analysis. Whole cell or nuclear lysates were generated by resuspending cells or nuclei in RIPA (Boston BioProducts) supplemented with 1× cOmplete EDTA-free protease inhibitor cocktail (Roche). […] Lysates were clarified by centrifugation (15,000×g, 20 minutes, 4° C.) and their concentrations quantified via the detergent-compatible Bradford assay (Thermo Fisher Scientific). […] Membranes were blocked with 3% milk in PBS-T and incubated overnight with primary antibody and subsequently with secondary antibody after brief washing with PBS-T. Chemiluminescence was determined by applying ECL Western Blotting detection reagent (GE Healthcare) to membranes and imaging on an Amersham Imager 600 (GE Healthcare). […]

Molecule	effect on PML-RARA oncogenic fusion protein [1]	proliferation (cell counts) (NB4 cells [2])	differentiation (NB4 cells [3])	enrichment of PU.1/SPI1, CEBPB, and CEBPE on open chromatin (NB4 cells [4])	enrichment of RARA on open chromatin (NB4 cells [4])	peroxidase activity via resorufin fluorescence [5]	peroxidase-dependent biotin signal (HEK293T nuclei)
CC1=C(/C=C/C(C)=C/C=C/C(C)=C/C(=O)O)C(C)(C)CCC1 [ATRA, All-trans retinoic acid]	degradation of the PML-RARA oncogenic fusion protein	decreased proliferation	granulocytic differentiation	positive enrichment	negative enrichment	–	–
B1	–	–	–	–	–	detected	low signal
